Test results published in ChEMBL document CHEMBL5725304, “3,4-dihydro-2H-isoquinoline-1-one and 2,3-dihydro-isoindol-1-one compounds” (2017).
Values joined by “and” are separate entries in the source; they are usually repeats but may differ in a detail not shown here. Equal entries are not always repeated.

What was measured:
[1] = target: T1, Cytochrome P450 11B2, mitochondrial (Homo sapiens, UniProt P19099); test: (§1) Cellular Enzyme Assay: G-402 cells expressing CYP11 constructs were established as described above and maintained in McCoy's 5a Medium Modified, ATCC Catalog No. 30-2007 containing 10% FCS and 400 ug/ml G418 (Geneticin) at 37° C. under an atmosphere of 5% CO2/95% air. Cellular enzyme assays were performed in DMEM/F12 medium containing 2.5% charcoal treated FCS and appropriate concentration of substrate (0.3-10 uM 11-Deoxycorticosterone, 11-Deoxycortisol or Corticosterone). For assaying enzymatic activity, cells were plated onto 96 well plates and incubated for 16 h. An aliquot of the supernatant is then transferred and analyzed for the concentration of the expected product (Aldosterone for CYP11B2; Cortisol for CYP11B1). The concentrations of these steroids can be determined using HTRF assays from CisBio analyzing either Aldosterone or Cortisol.
T1 sequence (P19099 whole entry): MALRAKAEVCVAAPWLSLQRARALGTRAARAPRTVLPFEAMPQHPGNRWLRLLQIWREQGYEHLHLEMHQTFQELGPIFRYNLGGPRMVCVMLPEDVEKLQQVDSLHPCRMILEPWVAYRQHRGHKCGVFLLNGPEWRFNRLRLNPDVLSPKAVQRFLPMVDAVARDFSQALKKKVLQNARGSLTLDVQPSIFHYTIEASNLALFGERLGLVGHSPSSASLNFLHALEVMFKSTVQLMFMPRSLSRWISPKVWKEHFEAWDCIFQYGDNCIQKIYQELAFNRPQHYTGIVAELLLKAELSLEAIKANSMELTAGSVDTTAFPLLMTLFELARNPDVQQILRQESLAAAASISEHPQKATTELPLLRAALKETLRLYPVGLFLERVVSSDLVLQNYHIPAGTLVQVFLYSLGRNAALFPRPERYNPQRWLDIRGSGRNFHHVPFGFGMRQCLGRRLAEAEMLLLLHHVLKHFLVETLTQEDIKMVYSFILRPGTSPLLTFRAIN

[2] = target: T2, Cytochrome P450 11B1, mitochondrial (Homo sapiens, UniProt P15538); test: as §1
T2 sequence (P15538 whole entry): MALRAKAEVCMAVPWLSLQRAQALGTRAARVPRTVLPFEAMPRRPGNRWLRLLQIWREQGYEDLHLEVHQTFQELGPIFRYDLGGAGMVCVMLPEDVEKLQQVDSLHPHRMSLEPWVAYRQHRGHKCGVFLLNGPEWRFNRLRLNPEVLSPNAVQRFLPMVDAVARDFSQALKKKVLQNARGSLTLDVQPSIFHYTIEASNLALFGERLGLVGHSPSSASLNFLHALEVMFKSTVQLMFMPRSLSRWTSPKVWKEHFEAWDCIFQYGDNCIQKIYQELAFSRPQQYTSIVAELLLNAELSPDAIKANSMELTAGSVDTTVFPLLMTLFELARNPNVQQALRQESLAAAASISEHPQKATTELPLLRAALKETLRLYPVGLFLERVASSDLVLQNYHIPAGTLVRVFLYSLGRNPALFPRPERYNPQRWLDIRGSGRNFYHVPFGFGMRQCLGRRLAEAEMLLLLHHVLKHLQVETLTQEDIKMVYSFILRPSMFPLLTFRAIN

EC50 [1]: 1 nM and 0.6 nM
EC50 [2]: 188 nM and 124 nM
Structure (SMILES): CCS(=O)(=O)N1CCC(N(C)c2cncc(N3C(=O)c4ccc(Cl)cc4C3(C)C)c2)C1 (single isomer, unassigned)
